Laboratory results: PMC9143880, “Improving Antimicrobial Activity and Physico-Chemical Properties by Isosteric Replacement of 2-Aminothiazole with 2-Aminooxazole” (Pharmaceuticals, 2022)
≈ marks a conversion by molar mass, not a printed value. Like-named read-outs stand apart in the source and are kept apart here.

Legend:
[1] = test system: Mtb H37Rv CNCTC My 331/88 (ATCC 27294); experiment: microbe, parasite or virus in culture; type: cell-based; conditions: Mycobacterium tuberculosis, read-out: MIC Mtb H37Rv
Mtb laboratory ID MATI = type: cell-based, Mycobacterium tuberculosis; conditions: MDR strain MATI, CLSI breakpoints 2021
Mtb laboratory ID IZAK = type: cell-based, Mycobacterium tuberculosis; conditions: MDR strain IZAK, CLSI breakpoints 2020
[2] = test system: Mtb MATI (MDR clinical isolate); experiment: microbe, parasite or virus in culture; type: cell-based; conditions: Mycobacterium tuberculosis, read-out: MIC Mtb MATI
[3] = test system: Mtb IZAK (MDR clinical isolate); experiment: microbe, parasite or virus in culture; type: cell-based; conditions: Mycobacterium tuberculosis, read-out: MIC Mtb IZAK
[4] = test system: Staphylococcus aureus subsp. aureus (MRSA) CCM 4750 (ATCC 43300); experiment: Antibacterial microdilution broth (EUCAST); type: cell-based; conditions: Staphylococcus aureus
[5] = test system: Enterococcus faecalis CCM 4224 (ATCC 29212); experiment: Antibacterial microdilution broth (EUCAST); type: cell-based; conditions: Enterococcus faecalis
[6] = test system: Pseudomonas aeruginosa CCM 3955 (ATCC 27853); experiment: Antibacterial microdilution broth (EUCAST); type: cell-based; conditions: Pseudomonas aeruginosa
[7] = test system: Staphylococcus epidermidis CCM 4418 (ATCC 12228); experiment: Antibacterial microdilution broth (EUCAST); type: cell-based; conditions: Staphylococcus epidermidis
[8] = test system: Escherichia coli CCM 3954 (ATCC 25922); experiment: Antibacterial microdilution broth (EUCAST); type: cell-based; conditions: Escherichia coli
[9] = test system: Klebsiella pneumoniae CCM 4415 (ATCC 10031); experiment: Antibacterial microdilution broth (EUCAST); type: cell-based; conditions: internal quality control, 24 h
[10] = test system: Acinetobacter baumannii DSM 30007 (ATCC 19606); experiment: Antibacterial microdilution broth (EUCAST); type: cell-based; conditions: Acinetobacter baumannii
[11] = test system: Staphylococcus aureus subsp. aureus CCM 4223 (ATCC 29213); experiment: Antibacterial microdilution broth (EUCAST); type: cell-based; conditions: Staphylococcus aureus
M. tuberculosis H37Rv = conditions: whole cell, cited from earlier work
[12] = test system: M. aurum DSM 43999 (ATCC 23366); experiment: Antimycobacterial MIC, microdilution broth / resazurin; type: cell-based; conditions: Mycolicibacterium aurum, read-out: MIC M. aurum
[13] = test system: M. smegmatis DSM 43465 (ATCC 607); experiment: as above; type: cell-based; conditions: Mycolicibacterium smegmatis, read-out: MIC M. smegmatis
[14] = test system: M. kansasii DSM 44162 (ATCC 12478); experiment: as above; type: cell-based; conditions: Mycobacterium kansasii, read-out: MIC M. kansasii
[15] = test system: M. avium DSM 44156 (ATCC 25291); experiment: as above; type: cell-based, Mycobacterium avium; conditions: Mycobacterium avium, 96 h, read-out: MIC M. avium
HepG2 cells = experiment: HepG2 cytotoxicity screening (CellTiter 96); type: cell-based, human
[16] = Kinetic water solubility (water-induced precipitation of DMSO stock, UHPLC); type: physicochemical; conditions: 18 °C, water
Source text: A low value of log P is often presumed to be related to increased water solubility, although this might not always be the case since log P is a measure of relative solubility of the compound in the lipophilic and hydrophilic solvents (at equilibrium). Therefore, to be sure, we tested whether the lowered log k’w (related to log P) of the oxazole derivatives would also translate to increased solubility in water in a few representative derivatives. The water solubility of selected compounds was assessed by the kinetic method based on water-induced precipitation of DMSO stock solutions of tested compounds due to reasons described by Azzali and colleagues.
Water solubility was investigated using the kinetic solubility method. The sample (1 mg) was dissolved in the smallest amount of DMSO needed, 25 or 50 μL for subtype I and subtype II compounds, respectively. The samples were mixed at 18 °C in a thermomixer (Thermomixer comfort, Eppendorf, Hamburg, Germany) for 1 h. After mixing, the samples were diluted with water to a concentration of 500 μM, and the precipitate was observed. The sample was filtered through a 0.22 μm filter and diluted to be evaluated by UHPLC. The log S parameter was calculated from the experimental solubility in molar concentration. The samples were measured using the same instrument, software, and column as used in the purity evaluation.

[17] = test system: Candida parapsilosis CCM 8260 (ATCC 22019); experiment: Antifungal microdilution broth (EUCAST); conditions: Lodderomyces parapsilosis, 24 h, read-out: MIC CP
[18] = test system: Candida albicans CCM 8320 (ATCC 24433); experiment: Antifungal microdilution broth (EUCAST); conditions: Candida albicans, 24 h, read-out: MIC CA
[19] = test system: Aspergillus flavus CCM 8363; experiment: Antifungal microdilution broth (EUCAST); conditions: Aspergillus flavus, CCM8363, 24 h, read-out: MIC AFla
[20] = RP-UHPLC lipophilicity parameter log k’w; type: physicochemical
In short: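 Retention was measured once per eluent composition: subtype I at 40/45/50% and subtype II at 20/30/40% acetonitrile in water, isocratic RP-UHPLC. log k values from these runs gave the lipophilicity index log k’w.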

[21] = test system: Aspergillus fumigatus ATCC 204305; experiment: Antifungal microdilution broth (EUCAST); conditions: Aspergillus fumigatus, ATCC204305, 24 h, read-out: MIC AF
[22] = test system: Mycobacterium tuberculosis H37Ra ITM-M006710 (ATCC 9431); experiment: Antimycobacterial MIC, microdilution broth / Alamar Blue (resazurin); type: cell-based; conditions: Mycobacterium tuberculosis
[23] = test system: Candida tropicalis CCM 8264 (ATCC 750); experiment: Antifungal microdilution broth (EUCAST); conditions: Candida tropicalis, 24 h, read-out: MIC CT
[24] = test system: Candida krusei CCM 8271 (ATCC 6258); experiment: Antifungal microdilution broth (EUCAST); conditions: Pichia kudriavzevii, 24 h, read-out: MIC CK
[25] = test system: Lichtheimia corymbifera CCM 8077; experiment: Antifungal microdilution broth (EUCAST); conditions: Lichtheimia corymbifera, CCM8077, 24 h, read-out: MIC LC
[26] = test system: Trichophyton interdigitale CCM 8377 (ATCC 9533); experiment: Antifungal microdilution broth (EUCAST); conditions: Trichophyton interdigitale, 72 h, read-out: MIC TI
[27] = internal quality control, 95% growth inhibition, 530 nm, 24 h, read-out: MIC (spectrophotometric detection)
[28] = internal quality control, naked eye, 24 h, read-out: MIC (visual detection)

SMILES: CC[C@@H](CO)NCCN[C@@H](CC)CO [EMB, ethambutol]
- MIC [1]: 0.39 mg/L (≈ 1.91 µM)
- Concentration (susceptibility profile) (Mtb laboratory ID MATI): 0.5 µg/mL
- Susceptibility (Mtb laboratory ID MATI): sensitive
- Concentration (susceptibility profile) (Mtb laboratory ID IZAK): 0.5 µg/mL
- Susceptibility (Mtb laboratory ID IZAK): sensitive
- MIC [2]: 1.56 mg/L (≈ 7.64 µM)
- MIC [3]: 1.56 mg/L (≈ 7.64 µM)

SMILES: CNC(C)C1CCC(N)C(OC2C(N)CC(N)C(OC3OCC(C)(O)C(NC)C3O)C2O)O1 (stereo not drawn) [gentamicin, reference compound]
- MIC [4, 27]: > 8 mg/L
- MIC [4, 28]: > 8 mg/L
- MIC [5, 27]: > 8 mg/L
- MIC [5, 28]: > 8 mg/L
- MIC [6, 27]: 0.5 mg/L
- MIC [6, 28]: 0.5 mg/L
- MIC [7, 27]: 0.0625 mg/L
- MIC [7, 28]: 0.0625 mg/L
- MIC [8, 27]: 1 mg/L
- MIC [8, 28]: 1 mg/L
- MIC ([9]; 95% growth inhibition, 530 nm, read-out: MIC (spectrophotometric detection)): 0.5 mg/L (≈ 1.05 µM)
- MIC ([9]; naked eye, read-out: MIC (visual detection)): 0.5 mg/L (≈ 1.05 µM)
- MIC [10, 27]: 8 mg/L
- MIC [10, 28]: 8 mg/L
- MIC [11, 27]: 1 mg/L
- MIC [11, 28]: 0.5 mg/L

SMILES: O=C(Nc1nc(-c2ccc(F)cc2)cs1)c1cncc(Cl)n1 [A]
- MIC (M. tuberculosis H37Rv; recalculated to µM): 2.3 µM
- MIC (M. tuberculosis H37Rv): 0.78 mg/L

SMILES: CO[C@H]1/C=C/O[C@@]2(C)Oc3c(C)c(O)c4c(O)c(c(/C=N/N5CCN(C)CC5)c(O)c4c3C2=O)NC(=O)/C(C)=C\C=C\[C@H](C)[C@H](O)[C@@H](C)[C@@H](O)[C@@H](C)[C@H](OC(C)=O)[C@@H]1C [RIF, rifampicin]
- Concentration (susceptibility profile) (Mtb laboratory ID MATI): > 8 µg/mL
- Susceptibility (Mtb laboratory ID MATI): resistant
- Concentration (susceptibility profile) (Mtb laboratory ID IZAK): > 8 µg/mL
- Susceptibility (Mtb laboratory ID IZAK): resistant
- MIC ([12]; resazurin after 72 h): 0.39 mg/L (≈ 0.474 µM)
- MIC ([13]; resazurin after 48 h): 12.5 mg/L (≈ 15.2 µM)
- MIC ([14]; resazurin after 96 h): 0.025 mg/L (≈ 0.0304 µM)

SMILES: O=C(Nc1ncco1)c1ccnc(Cl)c1 [Compound 6b]
- MIC ([4]; 24h incubation, read-out: MIC MRSA): 62.5 µM
- MIC [15]: 3.12 mg/L (≈ 14 µM)
- MIC [1]: 6.25 mg/L (≈ 27.9 µM)
- IC50 (HepG2 cells; Homo sapiens, HepG2, 24 h, 24 h incubation, CellTiter 96, * above highest tested concentration, ** limited by insolubility in medium): 664 µM
- SI (HepG2 cells; SI = IC50 (µM) HepG2 / MICH37Ra (µM)): 47.5
- solubility ([16]; water (DMSO stock diluted with water), kinetic from dmso stock, read-out: solubility in water): > 500 µM
- solubility ([16]; kinetic method, DMSO stock diluted to 500 μM): no precipitate
- MIC ([12]; 72 h): 3.12 mg/L (≈ 14 µM)
- MIC ([13]; 48 h): 6.25 mg/L (≈ 27.9 µM)
- melting point: 158 to 162 °C
- MIC ([5]; 24h incubation, read-out: MIC EF): 500 µM
- MIC [17]: 250 µM (≈ 55.9 µg/mL)
- MIC [18]: 31.2 µM (≈ 6.99 µg/mL)
- MIC [2]: 3.13 mg/L (≈ 14 µM)
- MIC ([6]; 72h incubation, read-out: MIC PA): > 500 µM
- MIC [19]: 500 µM (≈ 112 µg/mL)
- MIC ([7]; 24h incubation, read-out: MIC SE): 62.5 µM
- MIC ([8]; 24h incubation, read-out: MIC EC): 62.5 µM
- log k’w ([20]; RP-UHPLC, acetonitrile/water, log k extrapolated to 0% acetonitrile): 1.136
- logkw ([20]; experimental lipophilicity parameter): 1.136
- MIC [21]: 125 µM (≈ 28 µg/mL)
- MIC ([22]; 120 h, Middlebrook 7H9, resazurin after 120 h, read-out: Mtb H37Ra MIC): 3.12 mg/L
- MIC ([22]; recalculated from µg/mL, read-out: MICH37Ra): 14 µM
- MIC [23]: 500 µM (≈ 112 µg/mL)
- MIC [3]: 3.13 mg/L (≈ 14 µM)
- MIC [24]: 250 µM (≈ 55.9 µg/mL)
- MIC ([10]; 24h incubation, read-out: MIC AB): 62.5 µM
- MIC [25]: 62.5 µM (≈ 14 µg/mL)
- MIC ([14]; 96 h): 3.12 mg/L (≈ 14 µM)
- MIC [26]: 125 µM (≈ 28 µg/mL)
- MIC ([11]; 24h incubation, read-out: MIC SA): 250 µM
